Holding throughout (assay type): biochemical
The target of one assay is T1, JAK3 (Homo sapiens, UniProt P52333).
T1 construct: All four purified enzymes contain only the catalytic domain; His (N); purchased Carna Biosciences, Inc; host or cells: baculovirus expression system
Briefly: JAK kinase assay (HTRF, phosphorylation of synthetic peptide), JAK3. As to conditions: catalytic domain, ATP at Km (2 μM); read-out: JAK3 kinase inhibitory activity (EC50). (TR-FRET usually uses a lanthanide donor and a delayed reading to cut background.)

The next assay concerns the target T2, JAK1 (Homo sapiens, UniProt P23458).
T2 construct: JAK1 (aa 850-1154) and TYK2 (aa 871-1187) are expressed with an N-terminally fused GST-tag; GST (N); purchased Carna Biosciences, Inc; host or cells: baculovirus expression system
Description: JAK kinase assay (HTRF, phosphorylation of synthetic peptide), JAK1. As to conditions: catalytic domain, ATP at Km (7 μM); read-out: JAK1 kinase inhibitory activity (EC50). In outline: (§1)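 Catalytic-domain human JAK1 (GST-tagged, aa 850-1154) or His-tagged JAK2, baculovirus-expressed, phosphorylated 1 µM biotinylated TK peptide at Km ATP (JAK1 7 µM, 10 mM MgCl2, 50 nM SEB; JAK2 4 µM, 5 mM MgCl2) in pH 7.0 Hepes, 20-30 min RT. EDTA stop; overnight streptavidin-XL665/cryptate HTRF read.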

The target of a further assay is T3, JAK2 (Homo sapiens, UniProt O60674).
T3 construct: All four purified enzymes contain only the catalytic domain; His (N); purchased Carna Biosciences, Inc; host or cells: baculovirus expression system
Briefly: JAK kinase assay (HTRF, phosphorylation of synthetic peptide), JAK2. Particulars: catalytic domain, ATP at Km (4 μM); read-out: JAK2 kinase inhibitory activity (EC50). In outline:
as §1

For another assay, the target named is T4, TYK2 (Homo sapiens, UniProt P29597).
T4 construct: JAK1 (aa 850-1154) and TYK2 (aa 871-1187) are expressed with an N-terminally fused GST-tag; GST (N); purchased Carna Biosciences, Inc; host or cells: baculovirus expression system
T4 sequence (P29597 871-1187): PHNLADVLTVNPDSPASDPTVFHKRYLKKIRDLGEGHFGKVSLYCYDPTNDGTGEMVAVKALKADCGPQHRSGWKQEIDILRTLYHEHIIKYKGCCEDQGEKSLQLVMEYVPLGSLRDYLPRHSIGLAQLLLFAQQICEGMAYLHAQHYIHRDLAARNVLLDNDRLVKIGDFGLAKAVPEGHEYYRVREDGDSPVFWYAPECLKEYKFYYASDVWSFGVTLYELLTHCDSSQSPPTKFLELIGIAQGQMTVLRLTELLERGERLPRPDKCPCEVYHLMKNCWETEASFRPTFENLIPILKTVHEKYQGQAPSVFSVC
Description: JAK kinase assay (HTRF, phosphorylation of synthetic peptide), TYK2. As to conditions: catalytic domain, ATP at Km (13 μM); read-out: TYK2 kinase inhibitory activity (EC50). In outline: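 1 µM biotinylated TK peptide at Km ATP in pH 7.0 Hepes, 20-30 min RT. EDTA stop; overnight streptavidin-XL665/cryptate HTRF read.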

Each structure is given as a SMILES string.

T3 sequence (O60674 849-1124 limits assumed): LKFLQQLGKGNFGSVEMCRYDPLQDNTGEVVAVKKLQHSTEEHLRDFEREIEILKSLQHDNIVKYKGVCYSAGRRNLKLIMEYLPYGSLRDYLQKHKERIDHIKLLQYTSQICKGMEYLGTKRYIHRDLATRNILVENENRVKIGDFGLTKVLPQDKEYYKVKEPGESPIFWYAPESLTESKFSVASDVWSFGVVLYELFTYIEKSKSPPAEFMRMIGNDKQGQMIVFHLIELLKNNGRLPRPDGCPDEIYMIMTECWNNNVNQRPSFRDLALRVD
T2 sequence (P23458 850-1154): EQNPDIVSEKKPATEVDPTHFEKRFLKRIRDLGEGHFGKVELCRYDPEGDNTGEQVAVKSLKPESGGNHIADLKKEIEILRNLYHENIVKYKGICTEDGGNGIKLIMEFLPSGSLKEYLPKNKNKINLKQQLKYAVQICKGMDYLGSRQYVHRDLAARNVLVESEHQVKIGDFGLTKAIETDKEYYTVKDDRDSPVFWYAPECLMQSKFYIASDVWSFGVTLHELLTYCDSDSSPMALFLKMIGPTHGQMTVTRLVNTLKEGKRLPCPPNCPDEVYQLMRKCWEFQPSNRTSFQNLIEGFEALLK
T1 sequence (P52333 822-1111 limits assumed): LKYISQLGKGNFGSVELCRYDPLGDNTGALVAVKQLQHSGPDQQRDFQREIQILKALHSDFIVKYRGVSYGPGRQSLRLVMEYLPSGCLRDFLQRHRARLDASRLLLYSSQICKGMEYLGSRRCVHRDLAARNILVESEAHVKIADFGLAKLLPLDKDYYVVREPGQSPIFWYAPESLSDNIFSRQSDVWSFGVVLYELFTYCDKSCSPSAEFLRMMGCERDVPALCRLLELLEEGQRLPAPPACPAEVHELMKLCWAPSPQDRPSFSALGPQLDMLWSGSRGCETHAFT

For `CC(C#N)N(C1COC1)S(=O)(=O)N1CCN(c2ncnc3[nH]ccc23)CC12CC2` (centres unmarked) [Example 117, N-(1-cyanoethyl)-N-(oxetan-3-yl)-5-(7H-pyrrolo[2,3-d]pyrimidin-4-yl)-5,8-diazaspiro[2.5]octane-8-sulfonamide], the EC50 (commonly the concentration giving half of the maximal effect) on JAK3 is less than 100 nM; at JAK1, less than 100 nM; at JAK2 it was less than 100 nM; on TYK2, 100 to 500 nM.

Take `CN(C)C(=O)CN(C)S(=O)(=O)N1CCN(c2ncnc3[nH]ccc23)CC12CC2` [Example 36, N,N-Dimethyl-2-{methyl-[7-(7H-pyrrolo[2,3-d]pyrimidin-4-yl)-4,7-diaza-spiro[2.5]octane-4-sulfonyl]-amino}-acetamide]: the EC50 at JAK3 is 100 to 500 nM; at JAK1, less than 100 nM; on JAK2 it was less than 100 nM; at TYK2, 100 to 500 nM.

Turning to `CN(CC1CCCS(=O)(=O)C1)S(=O)(=O)N1CCN(c2ncnc3[nH]ccc23)CC12CC2` (centres unmarked) [Example 76, N-[(1,1-dioxothian-3-yl)methyl]-N-methyl-5-(7H-pyrrolo[2,3-d]pyrimidin-4-yl)-5,8-diazaspiro[2.5]octane-8-sulfonamide], the EC50 on JAK3 is less than 100 nM; on JAK1, less than 100 nM; at JAK2, less than 100 nM; at TYK2, 100 to 500 nM.

Consider `CN(CCO)S(=O)(=O)N1CCN(c2ncnc3[nH]ccc23)CC12CC2` [Example 109, N-(2-hydroxyethyl)-N-methyl-5-(7H-pyrrolo[2,3-d]pyrimidin-4-yl)-5,8-diazaspiro[2.5]octane-8-sulfonamide], for which the EC50 at JAK3 was 100 to 500 nM; at JAK1, less than 100 nM; on JAK2, less than 100 nM; at TYK2 it was 100 to 500 nM.

Consider `CCN(C1CCC1)S(=O)(=O)N1CCN(c2ncnc3[nH]ccc23)CC12CC2` [Example 99, N-cyclobutyl-N-ethyl-5-(7H-pyrrolo[2,3-d]pyrimidin-4-yl)-5,8-diazaspiro[2.5]octane-8-sulfonamide], for which the EC50 on JAK3 is 100 to 500 nM; at JAK1 it was less than 100 nM; at JAK2, less than 100 nM; on TYK2, less than 100 nM.

Regarding `O=S(=O)(N(CCc1ccccc1)CC1CCC1)N1CCN(c2ncnc3[nH]ccc23)CC12CC2` [Example 3, 7-(7H-Pyrrolo[2,3-d]pyrimidin-4-yl)-4,7-diaza-spiro[2.5]octane-4-sulfonic acid cyclobutyl methyl-phenethyl-amide], the EC50 at JAK3 is 100 to 500 nM; at JAK1, 100 to 500 nM; at JAK2, less than 100 nM; on TYK2, more than 500 nM.

With `CN(CCCc1cccc(C#N)c1)S(=O)(=O)N1CCN(c2ncnc3[nH]ccc23)CC12CC2` [Example 30, 7-(7H-Pyrrolo[2,3-d]pyrimidin-4-yl)-4,7-diaza-spiro[2.5]octane-4-sulfonic acid [3-(3-cyano-phenyl)-propyl]-methyl-amide], the EC50 is 100 to 500 nM on JAK3, less than 100 nM at JAK1, less than 100 nM at JAK2 and more than 500 nM at TYK2.

`CN(CC1CCN(S(=O)(=O)CCCC#N)CC1)S(=O)(=O)N1CCN(c2ncnc3[nH]ccc23)CC12CC2` [Example 159, N-[[1-(3-cyanopropylsulfonyl)-4-piperidyl]methyl]-N-methyl-5-(7H-pyrrolo[2,3-d]pyrimidin-4-yl)-5,8-diazaspiro[2.5]octane-8-sulfonamide]: the EC50 was less than 100 nM at JAK3, less than 100 nM on JAK1, less than 100 nM on JAK2 and 100 to 500 nM at TYK2.

For the compound `CN(Cc1cccc(S(N)(=O)=O)c1)S(=O)(=O)N1CCN(c2ncnc3[nH]ccc23)CC12CC2` [Example 90, N-methyl-5-(7H-pyrrolo[2,3-d]pyrimidin-4-yl)-N-[(3-sulfamoylphenyl)methyl]-5,8-diazaspiro[2.5]octane-8-sulfonamide], the EC50 at JAK3, on JAK1, on JAK2 and on TYK2 was less than 100 nM throughout.

On to `CC(C)CN(CCc1ccccc1)S(=O)(=O)N1CCN(c2ncnc3[nH]ccc23)CC12CC2` [Example 6, 7-(7H-Pyrrolo[2,3-d]pyrimidin-4-yl)-4,7-diaza-spiro[2.5]octane-4-sulfonic acid isobutyl-phenethyl-amide], for which the EC50 on JAK3 is 100 to 500 nM; on JAK1, 100 to 500 nM; at JAK2, less than 100 nM; at TYK2, more than 500 nM.

Turning to `CN(Cc1ccccn1)S(=O)(=O)N1CCN(c2ncnc3[nH]ccc23)CC12CC2` [Example 28, 7-(7H-Pyrrolo[2,3-d]pyrimidin-4-yl)-4,7-diaza-spiro[2.5]octane-4-sulfonic acid methyl-pyridin-2-ylmethyl-amide], the EC50 is 100 to 500 nM at JAK3, less than 100 nM on JAK1, less than 100 nM on JAK2 and 100 to 500 nM on TYK2.

On to `CN(CC1CCCN(S(C)(=O)=O)C1)S(=O)(=O)N1CCN(c2ncnc3[nH]ccc23)CC12CC2` (centres unmarked) [Example 160, N-methyl-N-[(1-methylsulfonyl-3-piperidyl)methyl]-5-(7H-pyrrolo[2,3-d]pyrimidin-4-yl)-5,8-diazaspiro[2.5]octane-8-sulfonamide], for which the 50% effective concentration (EC50) was less than 100 nM on JAK3, less than 100 nM at JAK1, less than 100 nM on JAK2 and 100 to 500 nM at TYK2.

As to `CN(CCC1CC1)S(=O)(=O)N1CCN(c2ncnc3[nH]ccc23)CC12CC2` [Example 82, N-(2-cyclopropylethyl)-N-methyl-5-(7H-pyrrolo[2,3-d]pyrimidin-4-yl)-5,8-diazaspiro[2.5]octane-8-sulfonamide], the EC50 on JAK3, at JAK1, at JAK2 and at TYK2 was less than 100 nM in each case.

Regarding `CN(CCOc1cccc(C#N)c1)S(=O)(=O)N1CCN(c2ncnc3[nH]ccc23)CC12CC2` [Example 71, N-[2-(3-cyanophenoxy)ethyl]-N-methyl-5-(7H-pyrrolo[2,3-d]pyrimidin-4-yl)-5,8-diazaspiro[2.5]octane-8-sulfonamide], the EC50 was 100 to 500 nM on JAK3, less than 100 nM at JAK1, less than 100 nM at JAK2 and more than 500 nM on TYK2.

For `CN(CC1CC1(F)F)S(=O)(=O)N1CCN(c2ncnc3[nH]ccc23)CC12CC2` (centres unmarked) [Example 86, N-[(2,2-difluorocyclopropyl)methyl]-N-methyl-5-(7H-pyrrolo[2,3-d]pyrimidin-4-yl)-5,8-diazaspiro[2.5]octane-8-sulfonamide], the concentration for a half-maximal effect (EC50) at JAK3, on JAK1, at JAK2 and at TYK2 was less than 100 nM each time.

As to `CN(Cc1ccc(S(C)(=O)=O)cc1)S(=O)(=O)N1CCN(c2ncnc3[nH]ccc23)CC12CC2` [Example 83, N-methyl-N-[(4-methylsulfonylphenyl)methyl]-5-(7H-pyrrolo[2,3-d]pyrimidin-4-yl)-5,8-diazaspiro[2.5]octane-8-sulfonamide], the EC50 on JAK3, at JAK1, on JAK2 and at TYK2 was less than 100 nM each time.

Regarding `O=S(=O)(NCc1ccccc1)N1CCN(c2ncnc3[nH]ccc23)CC12CC2` [Example 147, N-benzyl-5-(7H-pyrrolo[2,3-d]pyrimidin-4-yl)-5,8-diazaspiro[2.5]octane-8-sulfonamide], the EC50 at JAK3 is 100 to 500 nM; at JAK1, less than 100 nM; at JAK2, less than 100 nM; at TYK2, 100 to 500 nM.

Take `O=S(=O)(NOCc1ccccc1)N1CCN(c2ncnc3[nH]ccc23)CC12CC2` [Int 46]: the EC50 on JAK3 was 100 to 500 nM; at JAK1, less than 100 nM; on JAK2, less than 100 nM; on TYK2 it was 100 to 500 nM.

For `CN(CCOc1ccccc1)S(=O)(=O)N1CCN(c2ncnc3[nH]ccc23)CC12CC2` [Example 31, 7-(7H-Pyrrolo[2,3-d]pyrimidin-4-yl)-4,7-diaza-spiro[2.5]octane-4-sulfonic acid methyl-(2-phenoxy-ethyl)-amide], the EC50 on JAK3 was 100 to 500 nM; at JAK1, less than 100 nM; on JAK2, less than 100 nM; on TYK2, 100 to 500 nM.

Consider `CN(C[C@H]1CCC(=O)N1)S(=O)(=O)N1CCN(c2ncnc3[nH]ccc23)CC12CC2` [Example 184, N-methyl-N-[[(2R)-5-oxopyrrolidin-2-yl]methyl]-5-(7H-pyrrolo[2,3-d]pyrimidin-4-yl)-5,8-diazaspiro[2.5]octane-8-sulfonamide], for which the EC50 on JAK3, at JAK1, on JAK2 and on TYK2 was less than 100 nM each time.
